Each compound was assayed on HCT116 colorectal cancer cells (assay: Cisplatin sensitization assay (96 h MTS cell viability)). Details: Cisplatin sensitization value.
Format: cell-based
Summary of the method: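 HCT116 cells were dosed simultaneously with compound and cisplatin as a full matrix of 2-fold serial dilutions from 10 μM top final concentration. Incubation was 96 h at 37° C., 5% CO2, followed by 1 h with MTS reagent for the viability read-out. Sensitization values were binned into +++, ++ and + categories.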
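Note: compound concentration needed to lower the IC50 of Cisplatin alone by a set fold.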

Structure (SMILES)	Cisplatin Sensitization Assay
CO[C@H]1CCN(C(=O)C2CCN(c3ccncc3NC(=O)c3c(N)nn4cc(F)cnc34)CC2)C1 [I-G-94, (S)-2-amino-6-fluoro-N-(4-(4-(3-methoxypyrrolidine-1-carbonyl)piperidin-1-yl)pyridin-3-yl)pyrazolo[1,5-a]pyrimidine-3-carboxamide]	+++ (Compounds with a Cisplatin sensitization value of <0.02 μM are marked with “+++.”)
Nc1nn2cc(Cl)cnc2c1C(=O)Nc1cnccc1N1CCN2CCC[C@H]2C1 [I-N-71, (S)-2-amino-6-chloro-N-(4-(hexahydropyrrolo[1,2-a]pyrazin-2(1H)-yl)pyridin-3-yl)pyrazolo[1,5-a]pyrimidine-3-carboxamide]	+++ (Compounds with a Cisplatin sensitization value of <0.02 μM are marked with “+++.”)
Nc1nn2cc(F)cnc2c1C(=O)Nc1cnccc1N1CCN(C(=O)C2COC2)CC1 [I-N-249]	+++ (Compounds with a Cisplatin sensitization value of <0.02 μM are marked with “+++.”)
Nc1nn2cc(F)cnc2c1C(=O)Nc1cncc(F)c1N1CCNCC1 [I-N-118, 2-amino-6-fluoro-N-(5-fluoro-4-(piperazin-1-yl)pyridin-3-yl)pyrazolo[1,5-a]pyrimidine-3-carboxamide]	+++ (Compounds with a Cisplatin sensitization value of <0.02 μM are marked with “+++.”)
Nc1nn2cc(F)cnc2c1C(=O)Nc1cnccc1C1CCN(C(=O)C2CC2)CC1 [I-C-70, 2-amino-N-(4-(1-(cyclopropanecarbonyl)piperidin-4-yl)pyridin-3-yl)-6-fluoropyrazolo[1,5-a]pyrimidine-3-carboxamide]	+++ (Compounds with a Cisplatin sensitization value of <0.02 μM are marked with “+++.”)
Nc1nn2cc(F)cnc2c1C(=O)Nc1cnccc1C1CCN(S(=O)(=O)C2CC2)CC1 [I-C-47, 2-amino-N-(4-(1-(cyclopropylsulfonyl)piperidin-4-yl)pyridin-3-yl)-6-fluoropyrazolo[1,5-a]pyrimidine-3-carboxamide]	+++ (Compounds with a Cisplatin sensitization value of <0.02 μM are marked with “+++.”)
Nc1nn2cc(F)cnc2c1C(=O)Nc1cncc(Cl)c1N1CCN(C2CCOC2)CC1 (centres unmarked) [I-N-124, 2-amino-N-(5-chloro-4-(4-(tetrahydrofuran-3-yl)piperazin-1-yl)pyridin-3-yl)-6-fluoropyrazolo[1,5-a]pyrimidine-3-carboxamide]	+++ (Compounds with a Cisplatin sensitization value of <0.02 μM are marked with “+++.”)
CN1CCN(c2ccncc2NC(=O)c2c(N)nn3cc(F)cnc23)CC12CCOCC2 [I-N-133, 2-amino-6-fluoro-N-(4-(1-methyl-9-oxa-1,4-diazaspiro[5.5]undecan-4-yl)pyridin-3-yl)pyrazolo[1,5-a]pyrimidine-3-carboxamide]	++ (Compounds with a Cisplatin sensitization value >0.02 μM but <0.2 μM are marked with “++.”)
Nc1nn2cc(F)cnc2c1C(=O)Nc1cncc(F)c1N1CCC(C(=O)N2CCN3CCCC3C2)CC1 (centres unmarked) [I-G-10, 2-amino-6-fluoro-N-(5-fluoro-4-(4-(octahydropyrrolo[1,2-a]pyrazine-2-carbonyl)piperidin-1-yl)pyridin-3-yl)pyrazolo[1,5-a]pyrimidine-3-carboxamide]	+++ (Compounds with a Cisplatin sensitization value of <0.02 μM are marked with “+++.”)
CC(=O)N1CCCC12CCN(c1ccncc1NC(=O)c1c(N)nn3cc(F)cnc13)CC2 [I-N-262, N-(4-(1-acetyl-1,8-diazaspiro[4.5]decan-8-yl)pyridin-3-yl)-2-amino-6-fluoropyrazolo[1,5-a]pyrimidine-3-carboxamide]	+++ (Compounds with a Cisplatin sensitization value of <0.02 μM are marked with “+++.”)
CCn1cncc1-c1ccncc1NC(=O)c1c(N)nn2cc(F)cnc12 [I-C-80, 2-amino-N-(4-(1-ethyl-1H-imidazol-5-yl)pyridin-3-yl)-6-fluoropyrazolo[1,5-a]pyrimidine-3-carboxamide]	+++ (Compounds with a Cisplatin sensitization value of <0.02 μM are marked with “+++.”)
Cc1ccncc1NC(=O)c1c(N)nn2cc(Cl)cnc12 [I-C-2, 2-amino-6-chloro-N-(4-methylpyridin-3-yl)pyrazolo[1,5-a]pyrimidine-3-carboxamide]	++ (Compounds with a Cisplatin sensitization value >0.02 μM but <0.2 μM are marked with “++.”)
CS(=O)(=O)C1CN(C(=O)C2CCN(c3ccncc3NC(=O)c3c(N)nn4cc(F)cnc34)CC2)C1 [I-G-89, 2-amino-6-fluoro-N-(4-(4-(3-(methylsulfonyl)azetidine-1-carbonyl)piperidin-1-yl)pyridin-3-yl)pyrazolo[1,5-a]pyrimidine-3-carboxamide]	+ (Compounds with a Cisplatin sensitization value >0.2 μM but <5 μM are marked with “+.”)
CN1CCN(C(=O)C2CCN(c3c(F)cncc3NC(=O)c3c(N)nn4cc(F)cnc34)C2)CC1 (centres unmarked) [I-N-191, 2-amino-6-fluoro-N-(5-fluoro-4-(3-(4-methylpiperazine-1-carbonyl)pyrrolidin-1-yl)pyridin-3-yl)pyrazolo[1,5-a]pyrimidine-3-carboxamide]	+ (Compounds with a Cisplatin sensitization value >0.2 μM but <5 μM are marked with “+.”)
Nc1nn2cc(F)cnc2c1C(=O)Nc1cnccc1N1CCN(CC(F)(F)F)CC1 [I-N-20, 2-amino-6-fluoro-N-(4-(4-(2,2,2-trifluoroethyl)piperazin-1-yl)pyridin-3-yl)pyrazolo[1,5-a]pyrimidine-3-carboxamide]	+++ (Compounds with a Cisplatin sensitization value of <0.02 μM are marked with “+++.”)
CN1CCN(CC2CCN(c3c(F)cncc3NC(=O)c3c(N)nn4cc(F)cnc34)CC2)C(=O)C1 [I-N-193, 2-amino-6-fluoro-N-(5-fluoro-4-(4-((4-methyl-2-oxopiperazin-1-yl)methyl)piperidin-1-yl)pyridin-3-yl)pyrazolo[1,5-a]pyrimidine-3-carboxamide]	+++ (Compounds with a Cisplatin sensitization value of <0.02 μM are marked with “+++.”)
CN1CCN(C(=O)c2cnc(-c3ccncc3NC(=O)c3c(N)nn4cc(F)cnc34)c(Cl)c2)CC1 [I-C-46, 2-amino-N-(3-chloro-5-(4-methylpiperazine-1-carbonyl)-[2,4′-bipyridin]-3′-yl)-6-fluoropyrazolo[1,5-a]pyrimidine-3-carboxamide]	+ (Compounds with a Cisplatin sensitization value >0.2 μM but <5 μM are marked with “+.”)
CN(C)CCOc1ccncc1NC(=O)c1c(N)nn2cc(Cl)cnc12 [I-O-48, 2-amino-6-chloro-N-(4-(2-(dimethylamino)ethoxy)pyridin-3-yl)pyrazolo[1,5-a]pyrimidine-3-carboxamide]	++ (Compounds with a Cisplatin sensitization value >0.02 μM but <0.2 μM are marked with “++.”)
N#CCc1cnc2c(C(=O)Nc3cnccc3O[C@@H]3CCNC3)c(N)nn2c1 [I-O-87, (R)-2-amino-6-(cyanomethyl)-N-(4-(pyrrolidin-3-yloxy)pyridin-3-yl)pyrazolo[1,5-a]pyrimidine-3-carboxamide]	++ (Compounds with a Cisplatin sensitization value >0.02 μM but <0.2 μM are marked with “++.”)
CN(C)CC1CCN(c2ccncc2NC(=O)c2c(N)nn3cc(Cl)cnc23)CC1 [I-N-45, 2-amino-6-chloro-N-(4-(4-((dimethylamino)methyl)piperidin-1-yl)pyridin-3-yl)pyrazolo[1,5-a]pyrimidine-3-carboxamide]	++ (Compounds with a Cisplatin sensitization value >0.02 μM but <0.2 μM are marked with “++.”)
COc1cncc(NC(=O)c2c(N)nn3cc(F)cnc23)c1-c1cncn1C [I-C-81, 2-amino-6-fluoro-N-(5-methoxy-4-(1-methyl-1H-imidazol-5-yl)pyridin-3-yl)pyrazolo[1,5-a]pyrimidine-3-carboxamide]	+++ (Compounds with a Cisplatin sensitization value of <0.02 μM are marked with “+++.”)
CN1CCN(C(=O)C2CCN(c3c(F)cncc3NC(=O)c3c(N)nn4cc(F)cnc34)CC2)CC1 [I-G-4, 2-amino-6-fluoro-N-(5-fluoro-4-(4-(4-methylpiperazine-1-carbonyl)piperidin-1-yl)pyridin-3-yl)pyrazolo[1,5-a]pyrimidine-3-carboxamide]	+++ (Compounds with a Cisplatin sensitization value of <0.02 μM are marked with “+++.”)
CN1CCN(C(=O)c2ccc(-c3ccncc3NC(=O)c3c(N)nn4cc(F)cnc34)cn2)CC1 [I-C-19, 2-amino-6-fluoro-N-(6-(4-methylpiperazine-1-carbonyl)-[3,4′-bipyridin]-3′-yl)pyrazolo[1,5-a]pyrimidine-3-carboxamide]	++ (Compounds with a Cisplatin sensitization value >0.02 μM but <0.2 μM are marked with “++.”)
CN(C)C(=O)C1CN(c2ccncc2NC(=O)c2c(N)nn3cc(F)cnc23)CCO1 (centres unmarked) [I-N-234, 4-(3-(2-amino-6-fluoropyrazolo[1,5-a]pyrimidine-3-carboxamido)pyridin-4-yl)-N,N-dimethylmorpholine-2-carboxamide]	+ (Compounds with a Cisplatin sensitization value >0.2 μM but <5 μM are marked with “+.”)
CN1CCN(CC2CCN(c3c(F)cncc3NC(=O)c3c(N)nn4cc(C5(C#N)CC5)cnc34)CC2)CC1 [I-N-192, 2-amino-6-(1-cyanocyclopropyl)-N-(5-fluoro-4-(4-((4-methylpiperazin-1-yl)methyl)piperidin-1-yl)pyridin-3-yl)pyrazolo[1,5-a]pyrimidine-3-carboxamide]	+++ (Compounds with a Cisplatin sensitization value of <0.02 μM are marked with “+++.”)
COC1(C)CN(C(=O)C2CCN(c3c(F)cncc3NC(=O)c3c(N)nn4cc(F)cnc34)CC2)C1 [I-G-75, 2-amino-6-fluoro-N-(5-fluoro-4-(4-(3-methoxy-3-methylazetidine-1-carbonyl)piperidin-1-yl)pyridin-3-yl)pyrazolo[1,5-a]pyrimidine-3-carboxamide]	+++ (Compounds with a Cisplatin sensitization value of <0.02 μM are marked with “+++.”)
